This is an account of results in ChEMBL document CHEMBL1201862, “PubChem BioAssay data set” (2004).

Some test systems named below: RPMI-8226; T47D; NCI-H23; TK-10; DU-145; MCF7; HCC 2998; LOX IMVI; SK-MEL-5; NCI-H460; NCI/ADR-RES; ACHN; MDA-MB-435; OVCAR-3; SNB-19; MDA-MB-231; OVCAR-5; EKVX; HL-60.
Holding throughout (experiment): NCI anticancer screen, dose series, 48 h

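Tested at 5 concentrations; 48 h exposure; 96-well plates; endpoints linearly interpolated, else capped at highest concentration. Abbreviation: GI50, concentration required for 50% inhibition of growth.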 Active and inactive are the calls of the source. Cut-off read from the data, not from the text of the source: active = GI50 up to about 1.1 µM and inactive = higher.

In the case of `Fc1ccc(C(OCCN2CCC3CCC(C2)N3C/C=C/c2ccco2)c2ccc(F)cc2)cc1` (configuration not stated), the GI50 in the test on RPMI-8226 was 4.2 µM (inactive); with T47D, 5.14 µM (inactive); in the test with NCI-H23, 11.3 µM (inactive); with TK-10, 6.93 µM (inactive); in the test on DU-145, 15.7 µM (inactive); in the test with MCF7 it was 10.2 µM (inactive). The GI50 in the test on HCC 2998 was 4.94 µM (inactive); with LOX IMVI, 11.2 µM (inactive); in the test with SK-MEL-5, 4.22 µM (inactive); in the test with NCI-H460 it was 7.11 µM (inactive); with NCI/ADR-RES it was 7.4 µM (inactive); with ACHN it was 12.7 µM (inactive). The GI50 in the test with MDA-MB-435 is 10.7 µM (inactive); in the test on OVCAR-3 it was 11.4 µM (inactive); in the test on SNB-19 it was 15.7 µM (inactive); in the test with MDA-MB-231, 11.1 µM (inactive).

On to `CSc1scc2c1/C(=N/NC(N)=O)CCC2`, for which the GI50 in the test on RPMI-8226 was 88.1 µM (inactive); with OVCAR-5, > 100 µM (inactive); with T47D, > 100 µM (inactive); in the test with NCI-H23, > 100 µM (inactive); in the test with TK-10, > 100 µM (inactive); with DU-145 it was 45.2 µM (inactive). The GI50 with MCF7 was 90.4 µM (inactive); with HCC 2998 it was > 100 µM (inactive); in the test with LOX IMVI, > 100 µM (inactive); in the test on SK-MEL-5, 41.1 µM (inactive); in the test on NCI-H460 it was 94.4 µM (inactive); with NCI/ADR-RES, 20.1 µM (inactive). Also, the GI50 in the test with ACHN is > 100 µM (inactive); in the test with MDA-MB-435, 52.8 µM (inactive); in the test with OVCAR-3 it was > 100 µM (inactive); with SNB-19 it was > 100 µM (inactive); in the test on MDA-MB-231, > 100 µM (inactive).

On to `COc1cc([C@@H]2c3cc4c(cc3[C@@H](OC3OC5COC(C)OC5C(OC(=O)CN5CCN(C)CC5)C3OC(=O)CN3CCN(C)CC3)C3COC(=O)[C@@H]32)OCO4)cc(OC)c1OC(=O)CN1CCN(C)CC1` (some centres not stated), for which the GI50 with OVCAR-5 is > 100 µM (inactive); with EKVX, > 100 µM (inactive); in the test with T47D, 71.1 µM (inactive); with NCI-H23, 22.3 µM (inactive); in the test on TK-10, > 100 µM (inactive); with DU-145 it was 44.7 µM (inactive). Also, the GI50 in the test with MCF7 was 10.8 µM (inactive); in the test on HCC 2998, 32.1 µM (inactive); in the test with LOX IMVI, 36.5 µM (inactive); with SK-MEL-5, 43.5 µM (inactive); with NCI-H460 it was 11.2 µM (inactive); in the test with NCI/ADR-RES it was 29.9 µM (inactive). The GI50 with ACHN was 54.5 µM (inactive); with MDA-MB-435 it was > 100 µM (inactive); in the test with OVCAR-3, > 100 µM (inactive); in the test on SNB-19, 78.7 µM (inactive); in the test with HL-60 it was 11.5 µM (inactive); with MDA-MB-231 it was 54.3 µM (inactive).

Turning to `CCN(CC)CCC(=O)c1ccc(Oc2ccc(C)cc2)cc1`, the GI50 was 7.29 µM (inactive) in the test with RPMI-8226; 19.5 µM (inactive) with OVCAR-5; 20 µM (inactive) in the test with EKVX; 18.2 µM (inactive) in the test with T47D; 17.7 µM (inactive) with NCI-H23; 17.7 µM (inactive) in the test with TK-10. The GI50 was 29.1 µM (inactive) with DU-145; 17.6 µM (inactive) with MCF7; 19.2 µM (inactive) in the test on HCC 2998; 16.7 µM (inactive) in the test with LOX IMVI; 23 µM (inactive) in the test with NCI/ADR-RES; 21.1 µM (inactive) with ACHN. For the same molecule, the GI50 with MDA-MB-435 was 18 µM (inactive); in the test on OVCAR-3, 17.6 µM (inactive); in the test on SNB-19, 18.5 µM (inactive); in the test on MDA-MB-231 it was 16.9 µM (inactive).

In the case of `CN(/N=C/c1ccccc1O)c1ccc2ccccc2n1`, the GI50 with RPMI-8226 is 35.6 µM (inactive); in the test on OVCAR-5, 41.2 µM (inactive); with EKVX, 19.8 µM (inactive); with T47D, 13.5 µM (inactive); in the test on NCI-H23 it was 17.1 µM (inactive); in the test with TK-10, 22.2 µM (inactive). In addition, the GI50 in the test with DU-145 is 20.1 µM (inactive); with MCF7 it was 2.61 µM (inactive); with LOX IMVI, 30.8 µM (inactive); with SK-MEL-5, 32.5 µM (inactive); in the test on NCI-H460, 22.9 µM (inactive); in the test on NCI/ADR-RES it was 22.4 µM (inactive). For the same molecule, the GI50 with ACHN is 25.4 µM (inactive); in the test on MDA-MB-435 it was 44.4 µM (inactive); in the test on OVCAR-3 it was 19.5 µM (inactive); with SNB-19 it was 16.7 µM (inactive); in the test with HL-60, 81.7 µM (inactive); in the test with MDA-MB-231 it was 29.8 µM (inactive).

`CCc1n[nH]c(=O)n1NC(=O)/C=C\C(=O)O`: the GI50 in the test on OVCAR-5, in the test with EKVX, in the test on T47D, with NCI-H23, in the test with TK-10 and in the test on DU-145 was > 100 µM (inactive) in each case. Also, the GI50 in the test on MCF7, with HCC 2998, with SK-MEL-5, with NCI-H460, in the test on NCI/ADR-RES and with MDA-MB-435 was > 100 µM (inactive) in each case. The GI50 with OVCAR-3, with HL-60 and in the test on MDA-MB-231 was > 100 µM (inactive) each time.

In the case of `Cc1nc(O)c2c3c(sc2n1)CCCC3`, the GI50 in the test with RPMI-8226 is 84.9 µM (inactive); with OVCAR-5, 60.7 µM (inactive); in the test on EKVX it was 19.9 µM (inactive); in the test with T47D, > 100 µM (inactive); in the test on NCI-H23, > 100 µM (inactive); in the test with TK-10, > 100 µM (inactive). The GI50 was > 100 µM (inactive) in the test on DU-145; 41.4 µM (inactive) in the test on MCF7; 72.4 µM (inactive) in the test on LOX IMVI; > 100 µM (inactive) in the test with SK-MEL-5; 0.284 µM (active) with NCI-H460; > 100 µM (inactive) with NCI/ADR-RES. Besides, the GI50 in the test with ACHN is 54.5 µM (inactive); in the test on MDA-MB-435, > 100 µM (inactive); with OVCAR-3, > 100 µM (inactive); in the test with SNB-19 it was > 100 µM (inactive); with HL-60 it was > 100 µM (inactive); in the test on MDA-MB-231, > 100 µM (inactive).

As for `O=C(O)C1C2CCC(O2)C1C(=O)NCc1cccnc1` (configuration not stated), the GI50 in the test on RPMI-8226, with OVCAR-5, in the test on EKVX, in the test with T47D, with NCI-H23 and with TK-10 was > 100 µM (inactive) throughout. In addition, the GI50 with DU-145, in the test with MCF7, with LOX IMVI, in the test with SK-MEL-5, in the test with NCI-H460 and with NCI/ADR-RES was > 100 µM (inactive) each time. The GI50 with ACHN, in the test with MDA-MB-435, in the test on OVCAR-3, in the test on SNB-19 and with MDA-MB-231 was > 100 µM (inactive) throughout.

On to `COC(=O)/C=C1\C(CO[Si](C)(C)C(C)(C)C)OC(n2ccc(=O)[nH]c2=O)C1O` (configuration not stated), for which the GI50 with RPMI-8226 is 6.07 µM (inactive); in the test on OVCAR-5, 16.5 µM (inactive); with EKVX, 8.63 µM (inactive); in the test on T47D it was 3.63 µM (inactive); in the test with NCI-H23 it was 7.08 µM (inactive); in the test with TK-10, 24.2 µM (inactive). The GI50 is 7.06 µM (inactive) with DU-145; 4.91 µM (inactive) in the test with MCF7; 7.71 µM (inactive) with HCC 2998; 6.41 µM (inactive) in the test with LOX IMVI; 6.28 µM (inactive) in the test with SK-MEL-5; 5.9 µM (inactive) in the test with NCI-H460. Also, the GI50 with NCI/ADR-RES is 10.4 µM (inactive); in the test with ACHN, 12.6 µM (inactive); with MDA-MB-435 it was 8.13 µM (inactive); with OVCAR-3 it was 21.6 µM (inactive); in the test with SNB-19, 18.5 µM (inactive); with MDA-MB-231 it was 34.5 µM (inactive).

For `CC(=O)c1c(O)cc(O)c(-c2c(C)cc(O)c3c2C(=O)c2cccc(O)c2C3=O)c1O`, the GI50 is 7.76 µM (inactive) in the test on RPMI-8226; 17.3 µM (inactive) with OVCAR-5; 16.1 µM (inactive) in the test on EKVX; 4.95 µM (inactive) in the test with T47D; 15.8 µM (inactive) in the test with TK-10; 16.3 µM (inactive) with DU-145. Further, the GI50 in the test on MCF7 is 14.8 µM (inactive); with LOX IMVI, 12.8 µM (inactive); with NCI-H460 it was 15 µM (inactive); in the test with NCI/ADR-RES it was 15.8 µM (inactive); in the test with ACHN it was 12.9 µM (inactive); with MDA-MB-435, 16.7 µM (inactive). The GI50 in the test on OVCAR-3 is 17.6 µM (inactive); with SNB-19 it was 21 µM (inactive); in the test with HL-60 it was 23.2 µM (inactive); with MDA-MB-231, 25.1 µM (inactive).

As to `CCOC(=O)/C(=C\c1ccc(CO)o1)P(=O)(OCC)OCC`, the GI50 was 40.7 µM (inactive) with RPMI-8226; 50 µM (inactive) with OVCAR-5; > 100 µM (inactive) with EKVX; 91.2 µM (inactive) with T47D; 22.3 µM (inactive) in the test with NCI-H23; 49.5 µM (inactive) in the test with TK-10. For the same molecule, the GI50 with DU-145 was 41.9 µM (inactive); in the test on MCF7 it was 43.9 µM (inactive); with HCC 2998, > 100 µM (inactive); with LOX IMVI it was 18.5 µM (inactive); with SK-MEL-5 it was > 100 µM (inactive); in the test on NCI-H460 it was 17 µM (inactive). Also, the GI50 is 22.2 µM (inactive) with NCI/ADR-RES; 61.1 µM (inactive) with ACHN; 29 µM (inactive) with MDA-MB-435; 18.9 µM (inactive) in the test on OVCAR-3; 63.2 µM (inactive) in the test with SNB-19; 31.7 µM (inactive) in the test with MDA-MB-231.
